In PMC4260654 (Cell host & microbe, 2014):

Columns and labels:
CLOSPO_02083 = molecular target: T1, CLOSPO_02083 (Clostridium sporogenes, UniProt J7SZ64); assay: progress curves of tryptamine production by HPLC, kobs vs [I]; assay type: biochemical; details: read-out: Ki
T1 sequence (J7SZ64 1-417): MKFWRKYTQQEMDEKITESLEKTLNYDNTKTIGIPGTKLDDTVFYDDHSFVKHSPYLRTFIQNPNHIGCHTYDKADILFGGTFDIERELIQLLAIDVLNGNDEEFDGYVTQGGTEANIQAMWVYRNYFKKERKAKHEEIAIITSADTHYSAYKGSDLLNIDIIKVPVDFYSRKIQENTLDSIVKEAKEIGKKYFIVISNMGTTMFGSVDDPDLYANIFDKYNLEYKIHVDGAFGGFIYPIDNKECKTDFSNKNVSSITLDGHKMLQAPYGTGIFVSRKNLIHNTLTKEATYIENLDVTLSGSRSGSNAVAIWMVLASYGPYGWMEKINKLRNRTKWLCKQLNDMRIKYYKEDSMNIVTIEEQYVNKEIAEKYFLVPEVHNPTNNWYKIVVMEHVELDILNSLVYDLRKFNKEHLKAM

RUMGNA_01526 = RUMGNA_01526 (Mediterraneibacter gnavus, UniProt A7B1V0); assay: X-ray crystal structure at […] Å; assay type: biochemical; details: read-out: Ki

Compound: NC(CF)(Cc1c[nH]c2ccccc12)C(=O)O (stereo in doubt) [I, (S)-α-FMT]
- KI (inactivation) (CLOSPO_02083): 0.2 µM
- KI (inactivation) (RUMGNA_01526): 178 µM
